Reference: patent publication US7253178B2, “Carboxylic acids” (Eisai Co., Ltd., priority 2001, dated 2007)

Key:
Assay in all cases: Transcriptional activity, GAL4-PPAR LBD chimera / PLAP reporter in CV-1 cells
Type in all cases: cell-based
PPAR α = target: T1, PPAR α (Homo sapiens, UniProt Q07869); details: GAL4-PPARα LBD (167-468), PLAP activity 24 hours after addition, read-out: Transcriptional activities EC50 PPAR α
T1 construct: human PPAR 167-468 (PPARα); expressed in transfected cells; host or cells: CV-1 (ATCC CCL-70)
T1 sequence (Q07869 167-468): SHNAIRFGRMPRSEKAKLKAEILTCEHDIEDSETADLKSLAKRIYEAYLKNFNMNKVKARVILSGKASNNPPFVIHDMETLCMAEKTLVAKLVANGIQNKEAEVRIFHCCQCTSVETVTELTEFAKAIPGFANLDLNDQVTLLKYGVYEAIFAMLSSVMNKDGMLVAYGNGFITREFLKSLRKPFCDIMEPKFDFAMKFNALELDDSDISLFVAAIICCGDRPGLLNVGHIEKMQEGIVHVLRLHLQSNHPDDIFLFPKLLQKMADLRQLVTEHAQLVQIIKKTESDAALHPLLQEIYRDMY
Description: (§1) A GAL4-PPAR LBD chimera expression vector was constructed by ligating human PPAR 167-468 (PPARα), 138-440 (NUC-1) and 174-475 (PPARγ) amino acid regions (LBD: Ligand Binding Domain) to a yeast transcriptional factor GAL4 1-147 amino acid region. As the reporter gene, PLAP (Placental Alkaline Phosphatase) was used, and this was ligated downstream of a TK promoter containing a 5-copy GAL4 DNA binding element to construct a vector. As host cells, CV-1 (ATCC CCL-70) was used. That is, CV-1 cells were spread at a density of 5×10^5 cells on a 35-mm dish and cultured in 10% FCS/DMEM for 24 hours, and using FuGENE 6 transfection reagent, the cells were co-transfected with the GAL4-PPAR LBD expression vector and GAL4 DBD-TK-PLAP expression vector. 24 hours after this transfection, the cells were spread again on a 96-well plate at a density of 1×10^4/well and further cultured for 24 hours. After 24 hours, the medium was exchanged with DMEM containing 10% FCS, which was previously treated at 65° C. for inactivating intrinsic alkaline phosphatase, and a test compound was added at an arbitrary concentration. The transcriptional activity was determined in terms of PLAP activity secreted 24 hours after addition of the compound, to calculate EC50. The PLAP activity was determined after adding 50 μl assay buffer and 50 μl chemoluminescence substrate to 10 μl culture supernatant and incubating the mixture at room temperature for 1 hour. The transcriptional activities for PPAR, PPARβ(δ) and PPARγ are shown respectively in Table 1.

PPAR β = target: T2, PPAR β (Homo sapiens, UniProt Q03181); details: GAL4-NUC-1 LBD (138-440), PLAP activity 24 hours after addition, read-out: Transcriptional activities EC50 PPAR β
T2 construct: 138-440 (NUC-1); expressed in transfected cells; host or cells: CV-1 (ATCC CCL-70)
T2 sequence (Q03181 138-440): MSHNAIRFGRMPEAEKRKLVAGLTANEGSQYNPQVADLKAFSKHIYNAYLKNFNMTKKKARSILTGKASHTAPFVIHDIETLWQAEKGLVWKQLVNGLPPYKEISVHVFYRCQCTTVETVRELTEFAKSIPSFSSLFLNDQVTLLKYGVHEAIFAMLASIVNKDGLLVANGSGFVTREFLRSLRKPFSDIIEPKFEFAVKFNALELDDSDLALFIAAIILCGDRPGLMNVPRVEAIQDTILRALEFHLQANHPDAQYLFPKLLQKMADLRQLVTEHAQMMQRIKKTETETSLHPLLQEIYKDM
Description: as §1

PPAR γ = target: T3, PPAR γ (Homo sapiens, UniProt P37231); details: GAL4-PPARγ LBD (174-475), PLAP activity 24 hours after addition, read-out: Transcriptional activities EC50 PPAR γ
T3 construct: 174-475 (PPARγ); expressed in transfected cells; host or cells: CV-1 (ATCC CCL-70)
T3 sequence (P37231 174-475 isoform P37231-2): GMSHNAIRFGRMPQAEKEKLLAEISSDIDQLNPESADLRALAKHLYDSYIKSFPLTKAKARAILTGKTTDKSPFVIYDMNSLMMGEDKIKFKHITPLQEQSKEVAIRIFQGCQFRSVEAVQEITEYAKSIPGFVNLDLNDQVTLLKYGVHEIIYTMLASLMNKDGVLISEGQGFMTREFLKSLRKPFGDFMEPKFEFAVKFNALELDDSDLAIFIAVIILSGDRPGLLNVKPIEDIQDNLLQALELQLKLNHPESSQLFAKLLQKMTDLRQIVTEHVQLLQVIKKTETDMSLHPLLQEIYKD
Description: as §1

| EC50 (PPAR α) [nM] | EC50 (PPAR β) [nM] | EC50 (PPAR γ) [nM] | Compound |
| --- | --- | --- | --- |
| 5.6 | 1410 | 68.5 | CC(C)OC(Cc1ccnc(OCCOc2ccc(Cl)cc2Cl)c1)C(=O)O (stereo not drawn) [Example 1, 3-{2-[2-(2,4-Dichlorophenoxy)ethoxy]-4-pyridyl}-2-isopropoxypropanoic acid] |
| 4.9 | 339 | 64.1 | CCOC(Cc1ccnc(OCCOc2ccc(C(F)(F)F)cc2)c1)C(=O)O (stereo not drawn) [Example 19, 2-Ethoxy-3-(2-{2-[4-(trifluoromethyl)phenoxy]ethoxy}-4-pyridyl)propanoic acid] |
| 2.7 | 1580 | 76.3 | CCOC(Cc1ccnc(OCCOc2ccc(C(C)(C)C)cc2)c1)C(=O)O (stereo not drawn) [Example 25, 3-(2-{2-[4-(tert-Butyl)phenoxy]ethoxy}-4-pyridyl)-2-ethoxypropanoic acid] |
